Structures are written as SMILES.

In one test the test system is AAV8.Xon.Epo. Description: In vivo induction of AAV8.Xon.Epo in C57Bl6 mice. The note with it: 24 h after the last LMI070 dose. From the text:
(§1) To assess the applicability of Xon for liver targeted therapies, AAV8.Xon.Epo and AAV8.Xon.SaCas9 vectors were generated and delivered to C57Bl6 and Ai14 reporter mice, respectively (FIGS. 7A, 7C, 7F).

For another test, the system named is HTT. Briefly: X^on-SaCas9 regulated HTT exon 1 editing in HEK293 cells. It is filed as cell-based, Human. As to the method: Cell culture, transfection, and LMI070/RG7800 treatment. Human embryonic kidney (HEK293) cells (obtained from CHOP Research Vector Core stock) were maintained in DMEM media containing 10% Fetal Bovine Serum (FBS), 1% L-Glutamine and 1% penicillin/streptomycin at 37° C. with 5% CO2. Cells were cultured in 24 well plates and transfected at 80-90% confluence using Lipofectamine 2000 transfection reagent, according to the manufacturer’s protocol. For all experiments, 4 hours after plasmid transfection, cells were treated with LMI070 (MedChemExpress, HY-19620, suspended in DMSO) or RG7800 (MedChemExpress, HY-101792A, suspended in H2O) at the indicated concentrations. Cells were tested for mycoplasma by Research Vector Core. None of the cells used in the study were listed in ICLAC database of commonly misidentified cell lines.
RNA extraction, RT-PCR, and Splicing assays. Total RNA was extracted using Trizol (Life Technologies) according to the manufacturer’s protocol, with the exception of 1 µL Glycoblue (Life Technologies) in addition to the aqueous phase on the isopropanol precipitation step and a single wash with cold 70% ethanol. To determine HTT expression levels after transfection, RNA samples were quantified by spectrophotometry and subsequently cDNAs generated from […] of total RNA with random hexamers (TaqMan RT reagents, Applied Biosystems). To determine human HTT expression levels in HEK293 cells, we used TaqMan probes for human HTT and glyceraldehyde 3-phosphate dehydrogenase (GAPDH) mRNAs obtained from Applied Biosystems. Relative HTT gene expression was determined using the ddCt method. […] Splicing was determined by PCR using the Phusion High-Fidelity polymerase (Thermofisher) and PCR products separated on a 2.5% agarose gel pre-stained with EtBr and spliced-in and spliced-out band densitometry performed using with the ChemiDoc Imaging System (BioRad) and Image Lab analysis software. Splicing induction from mouse tissues was determined using two custom TaqMan assays designed to determine total or LMI070-spliced in mRNA transcripts. The percentage of induction was determined by dividing the average Ct novel exon and average Ct Total, relative to control animals injected with AAV virus plus vehicle.
Western Blots. HEK293 cells were rinsed and lysed with Passive Lysis Buffer (PBL, Promega), protein concentrations determined using the DC protein assay (Bio-Rad), and 10-20 µg of protein loaded on a 3%-8% NuPAGE Tris-Acetate Gel in tris-acetate buffer (Novex Life Technologies) or a 4-12% NuPAGE TrisBis NuPAGE gels in MES buffer (Novex Life Technologies) to determine HTT, SaCas9, or eGFP protein levels, respectively, with β-catenin as loading control. […]

For test [1], the system named is Ai14 reporter genomic locus. Description: In vivo AAVPHPeB SF3B3.Xon SaCas9 editing of Ai14 reporter locus in brain. The following applies: Ai14 mice, tdTomato expression. From the text:
To assess the applicability of Xon for brain targeted therapies, the SF3B3.Xon was packaged into AAVPHPeB vector to control the expression of SaCas9 protein and delivered to transgenic Ai14 reporter mice and BacHD mice (FIGS. 9A, 9C).

The subject of test [2] is Ai14 reporter genomic locus. Briefly: In vivo AAV8.Xon.SaCas9 editing of Ai14 reporter locus in liver. The note with it: Ai14 mice, PCR and tdTomato expression.
From the text: as §1

On to `CC1(C)CC(Oc2ccc(-c3ccc(-c4cn[nH]c4)cc3O)nn2)CC(C)(C)N1` [LMI070, 5-(1H-Pyrazol-4-yl)-2-(6-((2,2,6,6-tetramethylpiperidin-4-yl)oxy)pyridazin-3-yl)phenol], for which, in the test with AAV8.Xon.Epo, the “induction of Mouse Epo and hematocrit levels” value is “Induction of Mouse Epo and hematocrit levels were detected”. In addition, in the test with HTT (HEK293 cells, varying doses of LMI070, western blot 24 h), the “SaCas9 expression from X^on switch” value is given as “clear dose response”. Further, the “HTT exon 1 editing versus constitutively expressed SaCas9” value with HTT (X^on-SaCas9 plus gRNAs, 100 nM LMI070) is on record as “equivalent editing”. In addition, in the test on HTT (X^on-SaCas9 plus gRNAs, upon LMI070 treatment, RT-qPCR), the “reduction of HTT transcripts” value is listed as 50%. For the same molecule, the HTT protein levels result in the test on HTT (X^on-SaCas9 plus gRNAs, upon LMI070 treatment, western blot) was “similarly reduced”. Also, the “editing of the Ai14 reporter genomic locus (brain)” value in test [1] was “only observed on mice treated with LMI070”. Moreover, the “editing of the Ai14 reporter genomic locus (liver)” value in test [2] was “only observed on mice injected with AAV8.Xon.SaCas9 virus and treated with LMI070”.

The values above are taken from patent US20230340498A1, “COMPOSITIONS AND METHODS FOR INDUCIBLE ALTERNATIVE SPLICING REGULATION OF GENE EXPRESSION” (The Children's Hospital of Philadelphia, priority 2020, published 2023).
